Data taken from patent US11458149B1, “TEAD inhibitors and uses thereof” (Ikena Oncology, Inc., priority 2019, dated 2022).
Like-named read-outs stand apart in the source and are kept apart here.

How the values were obtained:
[1] = Mouse pharmacokinetics study; assay type: in vivo; conditions: BALB/c mice, 10 mg/kg oral gavage, 5% DMS/95% PEG400, plasma
Description: Formulated compounds were administered intravenously or orally via gavage to BALB/c mice. Typically, at 0.167, 0.5, 1, 2, 4, 6, 12, and 24 hours post-dose, blood was collected and processed to plasma by centrifugation and stored at −80° C. until analysis. Internal standard was added to each sample prior to protein precipitation with acetonitrile or TCA. The precipitates were filtered through a filter plate and the samples were analyzed by LC/MS/MS. A standard curve was prepared in plasma from typically from 1.0 ng/mL to 3000 ng/mL and processed in the same manner as the samples. Sample analysis was typically performed on a suitable LC/MS/MS system fitted with an analytical UPLC column and compounds eluted from the analytical column with a gradient from 30-95% 0.1% formic acid (v/v) in ACN: 0.1% formic acid (v/v) in water. Mass spectrometric detection of test compound and the internal standard was performed by […] in positive mode. The pharmacokinetics of each compound were analyzed by Phoenix WinNonlin software (Pharsight, St. Louis, Mo.) via noncompartmental analysis. FIG. 4 depicts pharmacokinetic (PK) properties of isomer 1 of compound I-186 following dosing in BALB/c mice.

[2] = system: TEAD; assay: TEAD reporter assay (Hippo Pathway TEAD Reporter - MCF7 cell line, luciferase); assay type: cell-based, human; conditions: Homo sapiens, MCF7, TEAD Reporter - MCF7 cells; read-out: TEAD Reporter Assay EC50
From the text: TEAD inhibition can be assayed using Hippo Pathway TEAD Reporter—MCF7 Cell Line (BPS Bioscience, Catalog #: 60618).
The TEAD Reporter—MCF7 cell line contains the firefly luciferase gene under the control of TEAD responsive elements stably integrated into the human breast cancer cell line, MCF7. Inside the cells, basal unphosphorylated YAP/TAZ remains in the nucleus and induces the constitutive expression of luciferase reporter. The cell line is validated for the inhibition of the expression of luciferase reporter by the activators of the Hippo pathway.
• 1) Harvest TEAD Reporter—MCF7 cells from culture in growth medium and seed cells at a density of 35,000 cells per well into white clear-bottom 96-well microplate in 45 μl of assay medium. • 2) Incubate cells at 37° C. in a CO2 incubator for overnight. • 3) Dilute the activators (H2O2 or okadaic acid) stock in assay medium. Add 5 μl of diluted activators to the wells. The final concentration of DMSO in assay medium is 0.1%. • 4) Add 5 μl of assay medium with same concentration of DMSO without activator to control wells. • 5) Add 50 μl of assay medium with DMSO to cell-free control wells (for determining background luminescence). • 6) Set up each treatment in at least triplicate. • 7) Incubate cells at 37° C. in a CO2 incubator for 5-6 hours. • 8) Perform luciferase assay using the ONE-Step™ Luciferase Assay System following the protocol provided: Add 100 μl of ONE-Step™ Luciferase reagent per well and rock at room temperature for ˜15 minutes. Measure luminescence using a luminometer. • 9) Data Analysis: Obtain the background-subtracted luminescence by subtracting the average background luminescence (cell-free control wells) from the luminescence reading of all wells.
(§1) Certain compounds were tested in TEAD reporter assay, and in H226 and H28. A: EC50<0.1 uM; B: 0.1 uM≤EC50≤0.5 uM; C: EC50>0.5 uM.

[3] = system: H28; assay: Anti-proliferation assay in H28 cells; assay type: cell-based; conditions: Homo sapiens, NCI-H28
Description: as §1
(§2) Individual cell lines were grown in medium according to supplier instructions and seeded into 96-well plates at a density that ensured logarithmic growth over 72 hours. TEAD inhibitor compounds were administered to cells at a top concentration of 10 μm and subsequently a 10 point 3-fold serial dilution was conducted. After 72 hours, proliferation was quantified using Cell TITERGLO™ (Promega, Inc.) and compared to vehicle control. IC50 and EC50 values were generated using XLFit curve fitting software.
The effect of isomer 2 of compound I-12 on cell proliferation is dependent on the presence of a Hippo/NF2 mutation. No effect is seen by isomer 2 of compound I-12 on the NF2 wild-type H28 cell line.

[4] = system: H226; assay: Anti-proliferation assay in H226 cells; assay type: cell-based, human; conditions: Homo sapiens, NCI-H226, H226 cells; read-out: H226 EC50
Description: as §1, §2

Compound	AUC(0-t) ([1]; mouse) [ng·h/mL]	Cmax ([1]; mouse, read-out: Cmax) [ng/mL]	EC50 [2] [nM]	EC50 [4] [nM]	AUC0-last [1] [ng·h/mL]	Cmax [1] [ng/mL]	EC50 [3] [nM]
C=CC(=O)NC1[C@H]2CN(Cc3ccc(C(F)(F)F)cc3)C[C@@H]12 (stereo partly drawn) [Compound I-69, N-[(1R,5S)-3-[[4-(Trifluoromethyl)phenyl]methyl]-3-azabicyclo[3.1.0]hexan-6-yl]prop-2-enamide]	1240	1160	< 100	< 100			
C=CC(=O)N[C@H]1[C@@H]2CCN(Cc3ccc(C(F)(F)F)cc3)C[C@@H]21 [Compound I-208, N-[(1R,6R,7S)-4-[[4-(trifluoromethyl)phenyl]methyl]-4-azabicyclo[4.1.0]heptan-7-yl]prop-2-enamide]	226	318					
C=CC(=O)N1CC[C@@H](NCc2ccc(C(F)(F)F)cc2)C1 [Compound I-211, 1-[(3R)-3-[[4-(trifluoromethyl)phenyl]methylamino]pyrrolidin-1-yl]prop-2-en-1-one]	1260	1250					
C=CC(=O)NC1CCN(Cc2ccc(OC(F)(F)F)cc2)CC1 [Compound I-388]			> 500	> 500			
C=CC(=O)NC1CCN(Cc2ccc(-c3ccccc3)cc2)CC1 [Compound I-389]			> 500	> 500			
C=CC(=O)NC1CCN(Cc2ccc(C#N)cc2)CC1 [Compound I-393]			> 500	> 500			
C=CC(=O)NC1CCN(Cc2ccc(Cl)cc2)CC1 [Compound I-394]			100 to 500	100 to 500			
C=CC(=O)NC1CCN(Cc2ccc(C(C)(C)C)cc2)CC1 [Compound I-395]			> 500	> 500			
C=CC(=O)NC1CCN(Cc2ccc(C3CC3)cc2)CC1 [Compound I-397]			> 500	100 to 500			

The next lines start with results.

AUC(0-t) ([1]; mouse) [ng·h/mL]	Cmax ([1]; mouse, read-out: Cmax) [ng/mL]	EC50 [2] [nM]	EC50 [4] [nM]	AUC0-last [1] [ng·h/mL]	Cmax [1] [ng/mL]	Compound	EC50 [3] [nM]
275	63.3					C=CC(=O)NC1CCN(Cc2ccc(C(F)(F)F)cc2)c2ccccc21 (stereo in doubt) [Compound I-203, N-[(4R)-1-[[4-(Trifluoromethyl)phenyl]methyl]-3,4-dihydro-2H-quinolin-4-yl]prop-2-enamide]	
		< 100	< 100			C=CC(=O)Nc1ccc(C)c(Nc2ccc(Cl)cc2)c1 [Compound I-27, N-[3-(4-Chloroanilino)-4-methyl-phenyl]prop-2-enamide]	> 500
		> 500	> 500			C=CC(=O)Nc1cccc(C)c1Oc1ccc(Cl)cc1 [Compound I-28, N-[2-(4-Chlorophenoxy)-3-methyl-phenyl]prop-2-enamide]	> 500
		< 100	100 to 500			C=CC(=O)Nc1cc(Oc2cccc(C(F)(F)F)c2)c2ccccc2c1 [Compound I-29, N-[4-[3-(Trifluoromethyl)phenoxy]-2-naphthyl]prop-2-enamide]	> 500
		< 100	< 100			C=CC(=O)Nc1ccc(C)c(Oc2cncc(C(F)(F)F)c2)c1 [Compound I-30, N-[4-Methyl-3-[[5-(trifluoromethyl)-3-pyridyl]oxy]phenyl]prop-2-enamide]	> 500
		< 100	< 100			C=CC(=O)Nc1ccc(C)c(Oc2cc(C(F)(F)F)ccn2)c1 [Compound I-31, N-[4-methyl-3-[[4-(trifluoromethyl)-2-pyridyl]oxy]phenyl]prop-2-enamide]	> 500
		< 100	< 100			C=CC(=O)Nc1ccc(C)c(Nc2cccc(C(F)(F)F)c2)c1 [Compound I-33, N-[4-Methyl-3-[3-(trifluoromethyl)anilino]phenyl]prop-2-enamide]	> 500
368	345	< 100	< 100			C=CC(=O)NC1CCN([C@H](C)c2ccc(C(F)(F)F)cc2)CC1 [Compound I-62, N-[1-[(1R)-1-[4-(Trifluoromethyl)phenyl]ethyl]-4-piperidyl]prop-2-enamide]	
				397	246	C=CC(=O)Nc1ccc(C)c(Oc2ccc(Cl)cc2)c1 [Compound P-5]	
